# According to patent US8741871B2, “Trehalose compound, method for producing same, and pharmaceutical product containing the compound” (priority 2008, dated 2014):
# Columns and labels:
# [1] = system: Salmonella typhmurium TA98; assay: Mutagenicity test (Ames test); settings: TA98, in the presence or absence of S9 mix; FIG. 11
# [2] = system: IL-6, TNF-α, IFN-γ in mouse plasma; assay: Measurement of IL-6, TNF-α and IFN-γ released into peripheral blood of test compound administered mouse; settings: 100 μg/mouse intravenous, two hours later; for IL-6-releasing activity (mouse plasma IL-6 concentration) compared with TDCM: FIG. 6; for IFN-γ-releasing activity (mouse plasma IFN-γ concentration) compared with TDCM: FIG. 7
# [3] = system: Welch bacillus (Type A; NTCT8237); format: in vivo; settings: 100 μg/mouse i.p. three hours before Welch bacillus 2.4×10^7 cells/mouse i.p.
# Description: As test compounds, 1 mg each of the compound synthesized by the method described in Production Example α-1 and TDCM were weighed. Emulsion solutions of the test compounds (1 mg/ml) were prepared in the same manner as described above.
# […] of Brain Heart Infusion (BHI) (Difco) powders were dissolved in 200 ml of distilled water. 40 ml of the obtained solution (hereinafter this solution is referred to as a “BHI medium”) was withdrawn with a measuring pipette, and it was then added to a 200-ml flask, followed by performing a high-pressure steam sterilization (121° C., 20 minutes). In addition, 5 ml of the BHI medium was added to two screw-top test tubes, and they were then subjected to a high-pressure steam sterilization. Moreover, a glass tube-equipped rubber plug (with a cotton plug) and a glass tube were also subjected to a high-pressure steam sterilization. In a clean bench, an appropriate amount of bacteria for preservation, which had grown on a cooked meat medium, was collected with a sterilized Pasteur pipette, and it was then inoculated on the BHI medium in the aforementioned sterilized screw-top test tube. Subsequently, it was incubated at 37° C. overnight.
# In a clean bench, bacteria that had grown in the screw-top test tube (wherein the inside of the […] in which bacteria had grown became clouded, and gas was generated) was transferred into a 200-ml Erlenmeyer flask, which contained 40 ml of BHI medium. A glass tube was inserted into the medium, so as to carry out nitrogen substitution for 10 minutes. Subsequently, the glass tube-equipped rubber plug (with a cotton plug) was equipped in the Erlenmeyer flask (since Welch bacillus generates gas, it is necessary to make an air vent), and incubation was then carried out at 37° C. for 4 to 5 hours. Thereafter, the cultured Welch bacillus was transferred into a centrifuge tube, it was then centrifuged (9000 rpm, 15 minutes), and the supernatant was then removed. 20 ml of sterilized normal saline solution was added to the precipitate, so that the bacteria were suspended therein. The suspension was centrifuged (9000 rpm, 15 minutes), and the supernatant was then removed.
# Mice (ICR, 6-week-old) were divided into three groups, and the following test was then carried out.
# An emulsion solution containing the test compound, an emulsion solution containing TDCM, or an emulsion solution alone, which was to be used as a control, was intraperitoneally administered in an amount of 100 μg/mouse to a group of four mice (100 μl/mouse, in the case of the emulsion solution alone). Three hours later, Welch bacillus (2.4×10^7 cells/mouse) was intraperitoneally administered to the mice. Thereafter, the condition of the mice was observed.
# [4] = system: Welch bacillus toxin (recombinant α-toxin); settings: in vivo, ip
# [5] = system: THP-1 cells; assay: Analysis of cytotoxicity to THP-1 cells using trypan blue; format: cell-based, human; settings: treated for 2 hours and for 24 hours; FIG. 10
# Description: The cultured THP-1 cells were transferred into a 50-ml centrifuge tube in a clean bench. The cells were then centrifuged at 1,000 rpm for 5 minutes at 20° C., and the supernatant was then removed. […] 10 μl of this cell suspension was added to a sterile Eppendorf tube, to which 990 μl of serum-free RPMI 1640 medium had previously been added, so that the solution was 100-fold diluted. The number of cells in 10 μl of the 100-fold diluted solution was counted with a blood cell counter, and the cell suspension was diluted with serum-free RPMI 1640 medium to a cell density of 1×10^7 cells/ml.
# A test compound (Example 9)/DMSO solution, or DMSO was added to 100 μl of RPMI medium to a concentration of 200 μM. Thereafter, ultrasonic wave was applied to the mixture for 5 seconds. It is to be noted that a test compound, 6-O-(2-decyldecanoyl)-α-glucose (hereinafter referred to as a “control compound B”), and TDCM were used to prepare positive controls in the same manner as described above. In addition, a negative control was prepared by adding no test compounds (vehicle). […] Subsequently, 20 μl of 0.3% trypan blue/PBS (−) was added to the reaction solution so as to suspend the reaction solution therein, and thereafter, the survival rate of the cells was immediately analyzed using a cell number measuring apparatus (CYRORECON).
structure (smiles),measurement,setting,value
"Nc1ccc2cc3ccccc3cc2c1 [2-aminoanthracene, reference compound]","mutagenicity (Ames test, number of His colonies)",[1],positive
"CCCCCCCCCCCCCC(CCCCCCCCCCCCC)CC(=O)OCC1O[C@H](O[C@H]2OC(COC(=O)CC(CCCCCCCCCCCCC)CCCCCCCCCCCCC)[C@@H](O)C(O)C2O)C(O)C(O)[C@@H]1O (stereo partly drawn) [Example 13, 6,6′-bis-O-(3-tridecylhexadecanoyl)-α,α′-trehalose]",IL-6-releasing activity (mouse plasma IL-6 concentration) compared with TDCM,[2],approximately a half of
same,IFN-γ-releasing activity (mouse plasma IFN-γ concentration) compared with TDCM,[2],approximately a half of
"CCCCCCCCCCCCCCC(CCCCCCCCCCCCCC)CC(=O)OCC1O[C@H](O[C@H]2OC(COC(=O)CC(CCCCCCCCCCCCCC)CCCCCCCCCCCCCC)[C@@H](O)C(O)C2O)C(O)C(O)[C@@H]1O (stereo partly drawn) [Example 14, 6,6′-bis-O-(3-tetradecylheptadecanoyl)-α,α′-trehalose]",IL-6-releasing activity (mouse plasma IL-6 concentration) compared with TDCM,[2],approximately equivalent to
same,IFN-γ-releasing activity (mouse plasma IFN-γ concentration) compared with TDCM,[2],approximately equivalent to
"CCCCCCCCCCCCCCC[C@@H](O)[C@@H](CCCCCCCCCCCCCC)C(=O)OC[C@H]1O[C@H](O[C@H]2O[C@H](COC(=O)[C@H](CCCCCCCCCCCCCC)[C@H](O)CCCCCCCCCCCCCCC)[C@@H](O)[C@H](O)[C@H]2O)[C@H](O)[C@@H](O)[C@@H]1O [TDCM, trehalose dicorynomycolate, reference compound]","Number of surviving mice/number of treated mice, 2 hours later",[3]; 2 hours later,4/4
same,"Number of surviving mice/number of treated mice, 6 hours later",[3]; 6 hours later,4/4
same,"Number of surviving mice/number of treated mice, 12 hours later",[3]; 12 hours later,4/4
same,"Number of surviving mice/number of treated mice, 24 hours later",[3]; 24 hours later,4/4
same,"Number of surviving mice/number of treated mice, 48 hours later",[3]; 48 hours later,4/4
same,"Number of surviving mice/number of treated mice, 2 hours later",[4],4/4
same,"Number of surviving mice/number of treated mice, 6 hours later",[4],4/4
same,"Number of surviving mice/number of treated mice, 12 hours later",[4],4/4
same,"Number of surviving mice/number of treated mice, 24 hours later",[4],2/4
same,"Number of surviving mice/number of treated mice, 48 hours later",[4],2/4
"CCCCCCCCCCC(CCCCCCCC)C(=O)OC[C@H]1O[C@H](O)[C@H](O)[C@@H](O)[C@@H]1O (stereo partly drawn) [control compound B, 6-O-(2-decyldecanoyl)-α-glucose, reference compound]","cytotoxicity to THP-1 cells (survival rate, trypan blue staining)",[5],cytotoxicity was observed
